# Test results reported in ChEMBL document CHEMBL1159240, “(-)-Roemerine, an aporphine alkaloid from Annona senegalensis that reverses the multidrug-resistance phenotype with cultured cells” (1995).
# Experiments:
# Col2 = experiment: Cytotoxicity against human Col2 cells after 72 hrs by SRB assay; assay type: functional; settings: Col2, 72 h, read-out: ED50 (the source's name)
# [1] = Cytotoxicity against human multidrug resistant KBV1 cells in presence of vinblastine; assay type: functional; settings: KB-V1, read-out: ED50 (the source's name)
# P388 = experiment: Cytotoxicity against mouse P388 cells after 72 hrs by SRB assay; assay type: functional; settings: P388, 72 h, read-out: ED50 (the source's name)
# [2] = Cytotoxicity against human KB3 cells after 72 hrs by SRB assay; assay type: functional; settings: KB3, 72 h, read-out: ED50 (the source's name)
# SK-MEL-2 = experiment: Cytotoxicity against human SK-MEL-2 cells after 72 hrs by SRB assay; assay type: functional; settings: SK-MEL-2, 72 h, read-out: ED50 (the source's name)
# [3] = Cytotoxicity against human BC1 cells after 72 hrs by SRB assay; assay type: functional; settings: BC1, 72 h, read-out: ED50 (the source's name)
# A-431 = experiment: Cytotoxicity against human A431 cells after 72 hrs by SRB assay; assay type: functional; settings: A-431, 72 h, read-out: ED50 (the source's name)
# HT = experiment: Cytotoxicity against human HT cells after 72 hrs by SRB assay; assay type: functional; settings: read-out: ED50 (the source's name)
# ZR-75-1 = experiment: Cytotoxicity against human ZR-75-1 cells after 72 hrs by SRB assay; assay type: functional; settings: ZR-75-1, 72 h, read-out: ED50 (the source's name)
# Lu1 = experiment: Cytotoxicity against human Lu1 cells after 72 hrs by SRB assay; assay type: functional; settings: Lu1, 72 h, read-out: ED50 (the source's name)
# LNCaP = experiment: Cytotoxicity against human LNCAP cells after 72 hrs by SRB assay; assay type: functional; settings: read-out: ED50 (the source's name)
# [4] = Cytotoxicity against human U373 cells after 72 hrs by SRB assay; assay type: functional, U-373MG ATCC; settings: U373 MG, read-out: ED50 (the source's name)
# [5] = Cytotoxicity against human multidrug resistant KBV1 cells in absence of vinblastine after 72 hrs by SRB assay; assay type: functional; settings: KB-V1, 72 h, read-out: ED50 (the source's name)
smiles,measurement,setting,value
CN1CCc2cc3c(c4c2[C@H]1Cc1ccccc1-4)OCO3,EC50,Col2,5.8 µg/mL
same,EC50,[1],0.6 µg/mL
same,EC50,P388,> 5 µg/mL
same,EC50,[2],> 20 µg/mL
same,EC50,SK-MEL-2,> 20 µg/mL
same,EC50,[3],8.3 µg/mL
same,EC50,A-431,4.3 µg/mL
same,EC50,HT,6.4 µg/mL
same,EC50,ZR-75-1,> 20 µg/mL
same,EC50,Lu1,6.6 µg/mL
same,EC50,LNCaP,10.7 µg/mL
same,EC50,[4],5 µg/mL
same,EC50,[5],> 20 µg/mL
